Values joined by “and” are separate entries in the source; they are usually repeats but may differ in a detail not shown here. Equal entries are not always repeated.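 Protocol summary: plate cells (96-well), add compound at 5 concentrations, incubate 48 h, interpolate endpoints linearly. The concentration for 50% growth inhibition is given as GI50. The concentration for full growth arrest is given as TGI.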
Tests used:
Test in all cases: inhibition of tumour cell growth, NCI panel, 48 h
786-0 renal = tested on: 786-0 renal
EKVX NSCLC = tested on: EKVX NSCLC
HCT-15 colon = tested on: HCT-15 colon
MDA-MB-435 = tested on: MDA-MB-435
OVCAR-4 ovarian = tested on: OVCAR-4 ovarian
OVCAR-8 ovarian = tested on: OVCAR-8 ovarian
PC-3 prostate = tested on: PC-3 prostate
SF-539 CNS = tested on: SF-539 CNS
SK-MEL-5 melanoma = tested on: SK-MEL-5 melanoma
SNB-75 CNS = tested on: SNB-75 CNS

Structure (SMILES) | GI50 (786-0 renal) | TGI (786-0 renal) | GI50 (EKVX NSCLC) | TGI (EKVX NSCLC) | GI50 (HCT-15 colon) | TGI (HCT-15 colon) | GI50 (MDA-MB-435) | TGI (MDA-MB-435) | GI50 (OVCAR-4 ovarian) | TGI (OVCAR-4 ovarian) | GI50 (OVCAR-8 ovarian) | TGI (OVCAR-8 ovarian) | GI50 (PC-3 prostate) | TGI (PC-3 prostate) | GI50 (SF-539 CNS) | TGI (SF-539 CNS) | GI50 (SK-MEL-5 melanoma) | TGI (SK-MEL-5 melanoma) | GI50 (SNB-75 CNS) | TGI (SNB-75 CNS)
C#Cc1ccc(NC(=O)c2ccc(/C=C/C(=O)c3nccn3C)cc2)cc1 | 0.454 µM | 0.892 µM | 0.565 µM | 1.45 µM | 0.28 µM | 1.6 µM | 0.58 µM | 1.5 µM | 0.727 µM | 25 µM | 0.717 µM | 8.79 µM | 0.476 µM | 1.53 µM | 0.42 µM | 0.801 µM | 0.49 µM | 1.01 µM | 0.344 µM | 0.809 µM
CC(C)C(N)(C(=O)O)c1ccccc1 (stereo not drawn) |  | > 100 µM |  | > 100 µM |  | > 100 µM |  | > 100 µM |  | > 100 µM |  | > 100 µM |  | > 100 µM |  |  |  | > 100 µM |  | > 100 µM
Cc1nc(NC(=O)N2CCC[C@H]2C(N)=O)sc1-c1ccnc(C(C)(C)C(F)(F)F)c1 | 11.1 µM and > 10 µM | 64.1 µM and > 10 µM | 4.53 µM | > 10 µM | 1.36 µM and 2.81 µM | 47 µM and > 10 µM | 7.33 µM and > 10 µM | 51.6 µM and > 10 µM | 13.3 µM and > 10 µM | > 75.3 µM | 8.28 µM and > 10 µM | 76.2 µM and > 10 µM | 2.19 µM and 3.61 µM | 25.4 µM and > 10 µM | 3.93 µM and 4.6 µM | 24.3 µM and > 10 µM | 11.8 µM and > 10 µM | 24.6 µM and > 10 µM | 0.594 µM | 15.5 µM
C[C@@H]1CC[C@@]2(OC1)O[C@H]1C[C@H]3[C@@H]4CC=C5C[C@@H](O[C@@H]6O[C@H](CO)[C@@H](O[C@@H]7O[C@@H](CO)[C@H](O)[C@H]7O)[C@H](O)[C@H]6O[C@@H]6O[C@@H](C)[C@H](O)[C@@H](O)[C@H]6O)CC[C@]5(C)[C@H]4CC[C@]3(C)[C@H]1[C@@H]2C | 1.37 µM | 2.68 µM | 1.62 µM | 3.04 µM | 1.12 µM | 2.46 µM | 1.29 µM | 2.58 µM | 1.36 µM | 2.71 µM | 0.657 µM | 1.96 µM | 1.45 µM | 2.81 µM | 0.758 µM | 2.02 µM | 1.6 µM | 2.95 µM | 1.18 µM | 2.46 µM
COc1ccc(C(O)c2cc3c(N)c(C(=O)Nc4cccc(Br)c4)sc3nc2C)cc1 (stereo not drawn) | 0.225 µM | > 39.4 µM | 0.197 µM | > 100 µM | 0.121 µM | > 43 µM | 0.0202 µM | 0.05 µM | 0.224 µM | > 84.2 µM | 0.139 µM | > 55.6 µM | 0.204 µM | > 100 µM | 0.0248 µM | 0.0833 µM | 0.123 µM | 0.47 µM | 0.0693 µM | 
Fc1ccc(-c2ncn(C3CCNCC3)c2-c2ccnc(Oc3cccc(F)c3)n2)cc1 | > 23.5 µM | > 25 µM | > 25 µM | > 25 µM | > 18 µM | > 25 µM | 6.57 µM | > 19.4 µM | 16.8 µM | > 25 µM | > 25 µM | > 25 µM | 16.5 µM | > 25 µM | 10.7 µM | > 25 µM | 4.04 µM | 8.73 µM | 14.8 µM | > 25 µM
CN(Cc1cnc2nc(N)nc(N)c2n1)c1ccc(C(=O)NC(CCC(=O)O)C(=O)O)cc1 (stereo not drawn) | 0.0428 µM | > 100 µM | 0.399 µM | > 100 µM | 0.0623 µM | > 100 µM | 0.0478 µM | > 100 µM | > 100 µM | > 100 µM | 0.0532 µM | > 100 µM | 2.56 µM | > 100 µM | 0.234 µM | > 25.3 µM | 0.443 µM | > 100 µM | > 100 µM | > 100 µM
COC(=O)CCC1=C(C)c2cc3[n-]c(cc4nc(cc5[n-]c(cc1n2)c(CCC(=O)OC)c5C)C=C4C)cc3C.[Cd+2] | 11.3 µM | 39.3 µM | 5.89 µM | > 52.2 µM | 11.8 µM | > 55 µM | 2.99 µM | 19.6 µM | 2.35 µM | 7.14 µM | 9.95 µM | 75.4 µM | 4.68 µM | 29.3 µM | 4.39 µM | 15.2 µM | 1.14 µM | 2.83 µM | 6.62 µM | 33.8 µM
O=c1[nH]c(-c2ccc(C(F)(F)F)cc2)nc2c1CSCC2 | 35.3 µM | > 100 µM | > 42.1 µM | > 100 µM | > 100 µM | > 100 µM | > 100 µM | > 100 µM | 20.1 µM | > 100 µM | 26.3 µM | 99 µM | > 77.3 µM | > 100 µM | > 100 µM | > 100 µM | 88.9 µM | > 100 µM | 21.2 µM | 56.2 µM
Cn1cnc([N+](=O)[O-])c1Sc1ncnc2c1ncn2C1OC(CO)C(O)C1O (stereo not drawn) | 5.35 µM | > 100 µM | 86.2 µM | > 100 µM | 11.6 µM | > 100 µM | 3.6 µM | > 100 µM | 45.3 µM | > 100 µM | 6.19 µM | > 100 µM | 8.66 µM | > 100 µM | 4.11 µM | > 100 µM | 11.4 µM | > 100 µM | 27.7 µM | > 100 µM
O=C1/C(=C/c2cccs2)CCC/C1=C\c1cccs1 | 49.8 µM | > 100 µM |  |  | > 100 µM | > 100 µM | > 100 µM | > 100 µM | 14.6 µM | 45.2 µM | 51.6 µM | > 100 µM | 37.7 µM | > 100 µM | 59.2 µM | > 100 µM | > 100 µM | > 100 µM | 16.9 µM | 81.4 µM
c1ccc(-c2nc(N3CCNCC3)c3nc(-c4ccccc4)oc3n2)cc1 | 1.63 µM | 3.46 µM | 1.78 µM | 3.39 µM | 1.66 µM | 3.18 µM | 1.79 µM | 3.22 µM | 1.9 µM | 3.63 µM |  |  | 1.66 µM | 3.24 µM | 1.72 µM | 3.13 µM | 1.8 µM | 3.23 µM | 1.26 µM | 2.52 µM
CC(=O)OC1CCC2(C)C(=CC(C3C=C4CC(OC(C)=O)CCC4(C)C4=C3C3CC5OC6(CCC(C)CO6)C(C)C5C3(C)CC4)C3=C2CCC2(C)C3CC3OC4(CCC(C)CO4)C(C)C32)C1 (stereo not drawn) |  | 29.6 µM |  | 37.1 µM |  | 28.4 µM |  | 27.1 µM |  | 28.2 µM |  | 23.1 µM |  | 25.6 µM |  |  |  | 25.7 µM |  | 29.9 µM

Source: PubChem BioAssay (NCI)
